Assay results taken from ChEMBL document CHEMBL5465560, “Selectivity Literature for EUbOPEN Chemogenomic Library” (2024).

Key:
[1] = target: T1, Serine/threonine-protein kinase D1 (Homo sapiens) (UniProt Q15139); assay: Selectivity interaction (Millipore kinase profiler) EUB0000124b PRKD1; details: at 10 µM
T1 sequence (whole entry): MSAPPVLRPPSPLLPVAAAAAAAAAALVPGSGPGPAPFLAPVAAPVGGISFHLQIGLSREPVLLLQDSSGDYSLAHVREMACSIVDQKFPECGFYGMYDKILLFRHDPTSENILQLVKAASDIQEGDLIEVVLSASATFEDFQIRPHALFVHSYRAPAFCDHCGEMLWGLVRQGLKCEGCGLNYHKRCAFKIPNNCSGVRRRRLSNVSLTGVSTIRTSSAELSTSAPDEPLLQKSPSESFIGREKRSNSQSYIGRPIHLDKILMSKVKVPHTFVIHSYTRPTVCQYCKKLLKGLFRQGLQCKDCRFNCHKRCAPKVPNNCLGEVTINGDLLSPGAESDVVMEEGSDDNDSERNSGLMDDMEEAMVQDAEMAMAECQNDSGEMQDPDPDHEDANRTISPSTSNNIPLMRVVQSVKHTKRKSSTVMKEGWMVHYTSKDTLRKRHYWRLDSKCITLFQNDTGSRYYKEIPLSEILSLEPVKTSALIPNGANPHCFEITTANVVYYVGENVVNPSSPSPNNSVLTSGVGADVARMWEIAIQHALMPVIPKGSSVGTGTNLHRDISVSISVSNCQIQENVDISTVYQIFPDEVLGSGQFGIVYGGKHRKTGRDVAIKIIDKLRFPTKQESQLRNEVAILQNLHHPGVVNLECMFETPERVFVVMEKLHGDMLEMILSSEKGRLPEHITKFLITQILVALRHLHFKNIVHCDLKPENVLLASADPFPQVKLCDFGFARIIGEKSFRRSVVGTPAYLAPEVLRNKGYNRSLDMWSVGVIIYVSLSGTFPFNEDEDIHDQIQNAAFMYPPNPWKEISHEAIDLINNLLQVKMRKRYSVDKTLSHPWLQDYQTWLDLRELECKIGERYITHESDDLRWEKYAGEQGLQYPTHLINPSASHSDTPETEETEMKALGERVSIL

[2] = target: RAC-alpha serine/threonine-protein kinase (Homo sapiens, UniProt P31749); assay: Selectivity interaction (Kinase panel (literature)) EUB0001199aCl AKT1; details: at 1 µM
RAC-alpha serine/threonine-protein kinase, sequence (P31749 whole entry): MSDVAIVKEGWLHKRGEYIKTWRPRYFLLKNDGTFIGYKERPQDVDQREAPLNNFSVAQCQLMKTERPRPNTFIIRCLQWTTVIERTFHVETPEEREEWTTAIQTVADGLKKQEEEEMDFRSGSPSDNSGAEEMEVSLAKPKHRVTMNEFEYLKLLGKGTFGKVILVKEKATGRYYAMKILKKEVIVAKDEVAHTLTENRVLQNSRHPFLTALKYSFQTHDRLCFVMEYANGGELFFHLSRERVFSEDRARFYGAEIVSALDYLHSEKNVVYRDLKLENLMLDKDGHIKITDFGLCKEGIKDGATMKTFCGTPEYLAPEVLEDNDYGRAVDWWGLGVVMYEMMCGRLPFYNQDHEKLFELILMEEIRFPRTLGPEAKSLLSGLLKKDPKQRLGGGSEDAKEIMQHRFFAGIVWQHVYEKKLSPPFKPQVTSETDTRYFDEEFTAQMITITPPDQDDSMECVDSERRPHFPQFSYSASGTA

[3] = target: Serine/threonine-protein kinase tousled-like 2 (Homo sapiens) (UniProt Q86UE8); assay: Selectivity interaction (KinomeScan (DiscoverX)) EUB0001079a TLK2; details: at 1 µM
Serine/threonine-protein kinase tousled-like 2 (Homo sapiens), sequence (Q86UE8 whole entry, looked up): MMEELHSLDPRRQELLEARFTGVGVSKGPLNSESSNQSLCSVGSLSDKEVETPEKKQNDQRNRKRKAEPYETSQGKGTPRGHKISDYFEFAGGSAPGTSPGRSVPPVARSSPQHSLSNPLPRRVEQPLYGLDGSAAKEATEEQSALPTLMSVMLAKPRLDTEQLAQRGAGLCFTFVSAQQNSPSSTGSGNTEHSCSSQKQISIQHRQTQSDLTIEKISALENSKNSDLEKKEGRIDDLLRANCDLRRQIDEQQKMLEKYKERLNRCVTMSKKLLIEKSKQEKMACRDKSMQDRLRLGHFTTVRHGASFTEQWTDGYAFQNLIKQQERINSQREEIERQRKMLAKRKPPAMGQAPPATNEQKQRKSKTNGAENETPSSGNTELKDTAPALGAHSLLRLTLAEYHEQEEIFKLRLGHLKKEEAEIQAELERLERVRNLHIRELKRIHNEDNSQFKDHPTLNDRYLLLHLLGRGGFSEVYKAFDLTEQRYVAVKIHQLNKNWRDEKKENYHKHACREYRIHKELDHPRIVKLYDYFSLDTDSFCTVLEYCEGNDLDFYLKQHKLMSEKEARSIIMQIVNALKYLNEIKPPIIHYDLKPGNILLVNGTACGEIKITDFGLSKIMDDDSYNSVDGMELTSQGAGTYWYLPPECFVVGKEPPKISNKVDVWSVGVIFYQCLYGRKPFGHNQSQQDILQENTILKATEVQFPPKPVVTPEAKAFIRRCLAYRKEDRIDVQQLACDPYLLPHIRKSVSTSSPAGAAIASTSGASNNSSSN

[4] = target: T2, Cyclin-dependent kinase-like 5 (Homo sapiens) (UniProt O76039); assay: Selectivity interaction (KinomeScan (DiscoverX)) EUB0000618a CDKL5; details: at 10 µM
T2 sequence (whole entry): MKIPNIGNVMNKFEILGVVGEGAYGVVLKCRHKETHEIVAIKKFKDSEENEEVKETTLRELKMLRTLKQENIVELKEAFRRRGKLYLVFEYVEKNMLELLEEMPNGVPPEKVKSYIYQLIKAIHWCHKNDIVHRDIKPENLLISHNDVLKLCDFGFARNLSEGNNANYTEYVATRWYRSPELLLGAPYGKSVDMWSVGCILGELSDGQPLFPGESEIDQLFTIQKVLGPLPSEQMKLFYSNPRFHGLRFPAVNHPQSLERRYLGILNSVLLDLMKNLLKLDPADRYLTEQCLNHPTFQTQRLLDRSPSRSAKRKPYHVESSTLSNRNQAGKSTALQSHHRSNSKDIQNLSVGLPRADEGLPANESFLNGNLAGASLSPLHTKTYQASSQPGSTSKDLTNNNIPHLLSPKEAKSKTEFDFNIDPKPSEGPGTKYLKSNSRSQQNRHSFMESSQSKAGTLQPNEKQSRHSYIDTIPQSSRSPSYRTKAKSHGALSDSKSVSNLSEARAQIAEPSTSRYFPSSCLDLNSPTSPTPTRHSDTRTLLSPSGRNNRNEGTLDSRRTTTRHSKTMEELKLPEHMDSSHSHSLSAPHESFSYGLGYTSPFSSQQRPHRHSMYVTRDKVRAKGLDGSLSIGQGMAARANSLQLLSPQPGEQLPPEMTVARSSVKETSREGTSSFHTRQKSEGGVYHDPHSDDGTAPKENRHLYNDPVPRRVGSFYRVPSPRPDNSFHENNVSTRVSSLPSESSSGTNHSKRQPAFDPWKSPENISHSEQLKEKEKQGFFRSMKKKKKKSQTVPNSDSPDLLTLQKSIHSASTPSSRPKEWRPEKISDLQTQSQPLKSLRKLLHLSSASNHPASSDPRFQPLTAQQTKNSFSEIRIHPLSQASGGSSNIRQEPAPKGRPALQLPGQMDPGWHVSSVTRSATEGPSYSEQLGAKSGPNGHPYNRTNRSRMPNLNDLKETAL

[5] = target: Ephrin type-A receptor 2 (Homo sapiens) (UniProt P29317); details: at 10 µM
Ephrin type-A receptor 2 (Homo sapiens), sequence (P29317 whole entry): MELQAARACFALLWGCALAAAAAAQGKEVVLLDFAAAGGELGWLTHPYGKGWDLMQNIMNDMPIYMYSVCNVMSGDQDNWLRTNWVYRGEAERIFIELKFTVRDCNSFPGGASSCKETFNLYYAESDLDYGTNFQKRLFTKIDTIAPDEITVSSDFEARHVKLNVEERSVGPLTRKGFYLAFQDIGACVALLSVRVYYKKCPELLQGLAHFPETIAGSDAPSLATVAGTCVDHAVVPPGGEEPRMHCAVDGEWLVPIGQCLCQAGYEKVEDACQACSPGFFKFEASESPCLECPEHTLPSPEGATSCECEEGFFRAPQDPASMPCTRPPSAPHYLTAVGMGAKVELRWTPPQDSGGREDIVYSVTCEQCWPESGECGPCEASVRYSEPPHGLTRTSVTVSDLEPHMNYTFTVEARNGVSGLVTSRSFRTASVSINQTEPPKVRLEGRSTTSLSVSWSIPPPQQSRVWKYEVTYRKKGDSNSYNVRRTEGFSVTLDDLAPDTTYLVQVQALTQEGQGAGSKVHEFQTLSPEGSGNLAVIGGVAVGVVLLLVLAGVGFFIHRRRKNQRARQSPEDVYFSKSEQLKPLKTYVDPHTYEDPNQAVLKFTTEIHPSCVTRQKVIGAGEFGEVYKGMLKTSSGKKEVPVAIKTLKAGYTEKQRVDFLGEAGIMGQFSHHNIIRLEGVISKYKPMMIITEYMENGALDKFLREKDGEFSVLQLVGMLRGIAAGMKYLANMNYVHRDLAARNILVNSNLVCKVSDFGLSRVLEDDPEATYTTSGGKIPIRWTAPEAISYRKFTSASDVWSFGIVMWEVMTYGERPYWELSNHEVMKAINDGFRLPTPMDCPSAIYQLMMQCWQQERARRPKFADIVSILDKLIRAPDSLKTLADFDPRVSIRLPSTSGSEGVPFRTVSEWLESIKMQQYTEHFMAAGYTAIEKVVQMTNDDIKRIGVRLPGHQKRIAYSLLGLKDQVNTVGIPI

[6] = target: Insulin-like growth factor 1 receptor (Homo sapiens, UniProt P08069); assay: Selectivity interaction (ProQinase) EUB0000171b IGF1R
Insulin-like growth factor 1 receptor, sequence (P08069 31-736 limits assumed): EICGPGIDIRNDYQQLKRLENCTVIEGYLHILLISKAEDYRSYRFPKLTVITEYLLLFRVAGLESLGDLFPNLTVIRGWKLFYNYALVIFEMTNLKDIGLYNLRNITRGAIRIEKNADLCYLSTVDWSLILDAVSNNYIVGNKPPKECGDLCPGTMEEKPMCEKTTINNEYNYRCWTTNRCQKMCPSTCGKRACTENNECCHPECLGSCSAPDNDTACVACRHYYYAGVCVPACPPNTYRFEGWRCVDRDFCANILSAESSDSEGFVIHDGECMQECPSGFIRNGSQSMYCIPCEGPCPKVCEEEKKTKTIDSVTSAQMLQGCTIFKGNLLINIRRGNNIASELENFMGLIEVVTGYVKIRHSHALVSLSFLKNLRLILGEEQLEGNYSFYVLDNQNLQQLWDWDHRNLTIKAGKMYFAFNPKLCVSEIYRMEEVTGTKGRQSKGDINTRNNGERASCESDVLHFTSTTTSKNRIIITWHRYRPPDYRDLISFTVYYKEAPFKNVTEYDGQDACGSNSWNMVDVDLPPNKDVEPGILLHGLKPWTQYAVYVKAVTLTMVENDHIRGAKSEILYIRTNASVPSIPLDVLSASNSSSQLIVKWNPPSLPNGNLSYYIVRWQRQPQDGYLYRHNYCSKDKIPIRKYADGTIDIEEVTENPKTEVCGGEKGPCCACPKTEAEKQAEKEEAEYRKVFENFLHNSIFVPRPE
Insulin-like growth factor 1 receptor, sequence (P08069 741-1367 limits assumed): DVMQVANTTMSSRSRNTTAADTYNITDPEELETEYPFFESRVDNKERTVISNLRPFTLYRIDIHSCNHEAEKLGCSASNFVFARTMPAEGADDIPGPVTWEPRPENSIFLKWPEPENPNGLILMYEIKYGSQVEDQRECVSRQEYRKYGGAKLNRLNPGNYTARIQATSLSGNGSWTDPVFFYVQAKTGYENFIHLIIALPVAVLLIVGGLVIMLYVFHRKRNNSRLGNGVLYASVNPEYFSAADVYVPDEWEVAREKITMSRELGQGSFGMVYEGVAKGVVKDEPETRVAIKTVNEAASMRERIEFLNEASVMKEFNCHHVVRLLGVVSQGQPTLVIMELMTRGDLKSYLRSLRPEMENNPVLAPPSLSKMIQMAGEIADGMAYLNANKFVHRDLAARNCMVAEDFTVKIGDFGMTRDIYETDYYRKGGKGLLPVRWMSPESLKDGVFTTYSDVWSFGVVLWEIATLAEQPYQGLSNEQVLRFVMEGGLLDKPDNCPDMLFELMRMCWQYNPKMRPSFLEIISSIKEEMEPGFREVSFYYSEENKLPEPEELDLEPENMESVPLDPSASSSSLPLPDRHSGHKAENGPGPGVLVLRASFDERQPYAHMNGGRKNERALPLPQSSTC

SMILES: CC(=O)Nc1cccc(-n2c(=O)n(C3CC3)c(=O)c3c(Nc4ccc(I)cc4F)n(C)c(=O)c(C)c32)c1
- % of control [1]: 111%

SMILES: CN1Cc2nccc(-c3cn(C)nc3-c3ccc(F)cc3)c2C1=O
- % of inhibition [2]: 1%

SMILES: Nc1cnc(N2CCc3cc(S(=O)(=O)Nc4c(F)cc(Cl)cc4F)cc(N4CCCC4=O)c32)nc1 [TP-020n]
- % of control [3]: 79%

SMILES: O[C@H]1CC[C@H](Nc2ncc3nc(Nc4c(F)cc(F)cc4F)n([C@H]4CCOC4)c3n2)CC1
- % of control [4]: 100%

SMILES: Cc1cc([C@@H](C)Nc2ccccc2C(=O)O)c2nc(N3CCOCC3)cc(=O)n2c1 [AZD-6482]
- % of control [5]: 70%

SMILES: C=CC(=O)Nc1cccc(C(=O)Nc2ccc(Nc3cc(-c4[nH]c(SC)nc4C)ccn3)cc2)c1
- % of control ([6]; at 1 µM): 92%
- % of control ([6]; at 5 µM): 86%
